Reference: ChEMBL document CHEMBL1144939, “Modeling the adenosine receptors: comparison of the binding domains of A2A agonists and antagonists” (J Med Chem, 2003)

Key:
Adenosine receptor A2a [1] = target: Adenosine receptor A2a (Homo sapiens, UniProt P29274, T88D); test: Binding affinity against T88D human adenosine A2A receptor expressed in CHO cells using [3H]- ZM-241385; format: cell-based
Adenosine receptor A2a [2] = target: Adenosine receptor A2a (Homo sapiens, UniProt P29274, T88E); test: Binding affinity against T88E human adenosine A2A receptor expressed in CHO cells using [3H]- ZM-241385; format: cell-based
Adenosine receptor A2a [3] = target: Adenosine receptor A2a (Homo sapiens, UniProt P29274, Q89D); test: biochemical
Adenosine receptor A2a [4] = target: Adenosine receptor A2a (Homo sapiens, UniProt P29274, S277E); test: biochemical
Adenosine receptor A2a [5] = target: Adenosine receptor A2a (Homo sapiens, UniProt P29274); test: biochemical
Description: Binding affinity against WT human adenosine A2A receptor expressed in CHO cells using [3H]- ZM-241385

Adenosine receptor A2a [6] = target: Adenosine receptor A2a (Homo sapiens, UniProt P29274, H278D); test: biochemical
Adenosine receptor A2a [7] = target: Adenosine receptor A2a (Homo sapiens, UniProt P29274, H278E); test: biochemical
[8] = target: Adenosine receptors; A1 & A2a (Homo sapiens) (UniProt P30542+P29274); test: Selectivity ratio for binding to human adenosine A1 and A2A receptors; format: protein assay

Sequence of Adenosine receptor A2a (Homo sapiens, UniProt P29274) (P29274 whole entry): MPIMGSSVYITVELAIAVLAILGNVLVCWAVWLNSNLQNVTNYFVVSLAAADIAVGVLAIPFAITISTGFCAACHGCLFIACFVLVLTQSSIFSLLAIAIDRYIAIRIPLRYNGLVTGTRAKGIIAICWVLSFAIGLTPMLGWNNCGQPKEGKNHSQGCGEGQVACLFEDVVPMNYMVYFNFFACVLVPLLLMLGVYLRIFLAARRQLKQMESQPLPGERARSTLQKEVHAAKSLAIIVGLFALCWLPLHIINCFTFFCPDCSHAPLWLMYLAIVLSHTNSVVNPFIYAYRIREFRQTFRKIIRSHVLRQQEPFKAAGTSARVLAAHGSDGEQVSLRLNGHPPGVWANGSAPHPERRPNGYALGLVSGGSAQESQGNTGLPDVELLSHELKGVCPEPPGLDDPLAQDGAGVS
Sequence of Adenosine receptor A2a (Homo sapiens, UniProt P29274, T88E) (P29274 whole entry T88E): as the sequence (P29274 whole entry) above, with T88E counted along it
Sequence of Adenosine receptor A2a (Homo sapiens, UniProt P29274, T88D) (P29274 whole entry T88D): as the sequence (P29274 whole entry) above, with T88D counted along it
Sequence of Adenosine receptor A2a (Homo sapiens, UniProt P29274, Q89D) (P29274 whole entry Q89D): as the sequence (P29274 whole entry) above, with Q89D counted along it
Sequence of Adenosine receptor A2a (Homo sapiens, UniProt P29274, S277E) (P29274 whole entry S277E): as the sequence (P29274 whole entry) above, with S277E counted along it
Sequence of Adenosine receptor A2a (Homo sapiens, UniProt P29274, H278D) (P29274 whole entry H278D): as the sequence (P29274 whole entry) above, with H278D counted along it
Sequence of Adenosine receptor A2a (Homo sapiens, UniProt P29274, H278E) (P29274 whole entry H278E): as the sequence (P29274 whole entry) above, with H278E counted along it

Row | Compound | Ki (Adenosine receptor A2a [1]) [µM] | Ki (Adenosine receptor A2a [2]) [µM] | Ki (Adenosine receptor A2a [3]) [µM] | Ki (Adenosine receptor A2a [4]) [µM] | Ki (Adenosine receptor A2a [5]) [µM] | Ki (Adenosine receptor A2a [6]) [µM] | Ki (Adenosine receptor A2a [7]) [µM] | Ratio [8]
1 | NC[C@H]1O[C@@H](n2cnc3c(N)ncnc32)[C@H](O)[C@@H]1O | 407 | 492 | 52 | 604 | 0.534 |  |  | 
2 | NC[C@H]1[C@@H](O)[C@H](n2cnc3c(NCc4cccc(I)c4)ncnc32)O[C@@H]1CO | 6.5 | 64 | 58 | 67 | 0.079 | 59 | 56 | 
3 | N[C@H]1[C@@H](O)[C@H](n2cnc3c(NCc4cccc(I)c4)ncnc32)O[C@@H]1CO | 18 | 57 | 6.4 | 88 | 0.067 | 87 | 64 | 
4 | Nc1ccc(CCCn2ncc3c2nc(N)n2nc(-c4ccco4)nc32)cc1 |  |  |  |  |  |  |  | 9820
